Reference: patent publication US9918983B2, “Suicidal LSD1 inhibitors targeting SOX2-expressing cancer cells” (THE BOARD OF REGENTS OF THE NEVADA SYSTEM OF HIGHER …, priority 2013, dated 2018)

Tests used:
[1] = biological target: T1, LSD1-CoREST-HDAC1 complex (Homo sapiens, UniProt O60341+Q13547); experiment: Reconstituted LSD1-CoREST-HDAC1 complex on oligonucleosomes; type: biochemical; details: 50 μM CBB1007 or 2 μM MS-275
T1 construct: Human LSD1 and HDAC1 full-length cDNAs were obtained from Open Biosystems; GST (N, cleaved yes); made in house; host or cells: Escherichia coli BL21
Description: For the reconstitution reaction, recombinant GST-CoREST, His-LSD1, and recombinant HDAC1 (rHDAC1) (GST was removed by the use of PreScission protease) (10 μg) were assembled into the LSD1-CoREST-HDAC1 complex and then pulled down by GSTSepharose resins. Protein A-Sepharose was used as a negative-control resin.
Briefly, cells (1×10^6) were washed twice with ice-cold hypotonic buffer (20 mM potassium-HEPES, pH 7.8, 5 mM potassium acetate, 0.5 mM MgCl2, 0.5 mM DTT), swelled, and disrupted with 25 strokes in a Dounce homogenizer using a tightfitting pestle. Nuclei were pelleted at 4,000 rpm for 5 min and resuspended in buffer A (20 mM HEPES, pH 7.9, 1.5 mM magnesium acetate, 50 mM potassium acetate, 10% glycerol, 0.5 mM DTT, 150 mM NaCl, protease and phosphatase inhibitors). […] The chromatin pellet was resuspended in 0.5 mL buffer B (0.32 M sucrose, 50 mM Tris-HCl, pH 7.5, 4 mM MgCl2, 1 mM CaCl2, 0.1 mM phenylmethylsulfonyl fluoride) and incubated with 30 units of micrococcal nuclease for 10 min at 37° C. The digested samples were centrifuged at 8,000×g for 10 min, and the supernatant, which contained oligonucleosomes, was recovered.
The reaction products (demethylated or deacetylated histones) were analyzed by Western blotting.

[2] = system: histone H3 and H4 methylation and acetylation; experiment: Histone modifications in F9 cells (Western blotting); type: cell-based, mouse
Description: To quantify and compare the protein band densities in the Western blots shown in the figures, a titration by serial dilution of the siRNA protein samples for mES cell lysates was used as a reference. The concentration of titration samples was measured by use of a NanoDrop 2000 apparatus, and the protein concentration of all titration samples was adjusted to 1 μg/μL. The protein samples were loaded onto an SDS-polyacrylamide gel at levels ranging from 1 μg to 13 μg at 2-μg intervals and immune blotted with each antibody, including anti-LSD1, anti-HDAC1, and anti-histone H3 antibodies, with three independent loadings. The Western blots were developed with exposure times ranging from 30 s to 1 min. The exposure density of each band was scanned by Adobe Photoshop Elements (version 4.0) software using a CanonScan 8600F scanner (Canon, Calif.) and was subsequently quantified by use of the area density tool of Gel-Pro Analyzer (version 4.0) software (Media Cybernetics, Inc.) and plotted. The regression analysis of each signal was performed by use of the Microsoft Excel program's Analysis Tool Pak regression option. […] The amount of the protein band in the Western blot shown in the figures was quantified by scanning, as described for the reference titration. […] The quantity of protein band densities between two protein samples was externally corrected by use of the reference plots. […] The statistical differences between the experimental and control groups were analyzed by one-way analysis of variance (ANOVA). […]
Referring to FIG. 28D, time course analyses of the effects of 50 μM LSD1 inhibitor CBB1007 on histone modifications in F9 cells are shown, but with a shorter time course than above. The mean density of each band was quantified by the use of Gel-Pro Analyzer (version 4.0) software, and error bars represent SEMs for duplicate samples. […] The statistical differences were analyzed by one-way ANOVA. *, P_0.05; **, P_0.01. […]

HDAC1-protein A complex = biological target: T2, HDAC1-protein A complex (Mus musculus, UniProt O09106); experiment: In vitro deacetylation assay, immunoaffinity-purified HDAC1-protein A complex from F9 cells; type: biochemical; details: H4K16ac peptide; 50 μM CBB1007 or 2 μM MS-275
T2 construct: 1 μg immunoprecipitated endogenous HDAC1-protein A complexes; endogenous in cells; host or cells: F9 mouse teratocarcinoma cells, anti-HDAC1 immunoprecipitate on protein A-Sepharose
Source text: (§1) The immunocomplexes were captured by protein A-Sepharose. Isolated LSD1-protein A or HDAC1-protein A complexes were verified by Western blotting with LSD1 and HDAC1 antibodies.

[3] = biological target: T3, recombinant LSD1 (GST-LSD1) (Homo sapiens, UniProt O60341); experiment: In vitro demethylation assay, recombinant LSD1, H3K4me2 peptide; type: biochemical; details: dimethylated H3K4 peptide; 50 μM CBB1007 or 2 μM MS-275
T3 construct: Human LSD1 and HDAC1 full-length cDNAs were obtained from Open Biosystems; GST (N, cleaved yes); made in house; host or cells: Escherichia coli BL21
Source text: H3K4me2 and H4K16ac were purchased from AnaSpec and Shanghai Science Peptide Biological Technology Co., Ltd., respectively. Human LSD1 and HDAC1 full-length cDNAs were obtained from Open Biosystems. Human CoREST cDNA was amplified by reverse transcription-PCR (RT-PCR) using mRNA isolated from HeLa cells. These cDNAs were fully sequenced and cloned into the pGEX-KG or pET28a vector and expressed as the glutathione S-transferase (GST)- or His-tagged fusion proteins in the Escherichia coli BL21 strain and affinity purified with glutathione or Ni-Sepharose (GE Healthcare, United Kingdom) resin. […]
For a typical deacetylation assay, 1 μg rHDAC1 or 1 μg immunoprecipitated endogenous HDAC1-protein A complexes (from two 10-cm dishes) was incubated with 0.4 μg H4K16ac peptide in the presence or absence of 50 μM CBB1007 or 2 μM MS-275 at 30° C. for 1 h. The percentages of deacetylated products were analyzed by mass spectrometry, and the data were analyzed by GraphPad Prism (version 5) software. The reaction products were analyzed by mass spectrometry to separate the peptide substrate (H4K16ac) and the product (H4K16), as previously described (Wang, J., et al. (2011) Cancer Research 71, 7238-7249). […]

LSD1-protein A complex = biological target: T4, LSD1-protein A complex (Mus musculus, UniProt Q6ZQ88); experiment: In vitro demethylation assay, immunoaffinity-purified LSD1-protein A complex from F9 cells; type: biochemical; details: dimethylated H3K4 peptide; 50 μM CBB1007 or 2 μM MS-275
T4 construct: recombinant and endogenous LSD1 complexes isolated from F9 cells; endogenous in cells; host or cells: F9 mouse teratocarcinoma cells, anti-LSD1 immunoprecipitate on protein A-Sepharose
Source text: as §1

In the case of `COC(=O)c1cc(CN2CCN(C(=N)N)CC2)cc(C(=O)N2CCN(C(=O)c3ccc(C(=N)N)cc3)CC2)c1` [CBB1007], the “HDAC1 deacetylase activity in the reconstituted complex” value [1] is reported as “partial inhibition of the HDAC1 deacetylase activity”, the “LSD1 demethylase activity in the reconstituted complex” value [1] is reported as “inhibited the activity of LSD1 demethylase” and the “H3K4 methylation of oligonucleosomes from treated cells” value [2] is reported as “hypermethylated on H3K4”. The “time to increases of acetylation at H4K16 and H3K56 and mono- and dimethylation at H3K4” value ([2]; 50 μM) was ≤ 20 min, the “deacetylase activity of immunoaffinity-purified HDAC1 (HDAC1-protein A)” value (HDAC1-protein A complex) was “sufficient to inhibit the deacetylase activity” and the “demethylation activity of GST-LSD1” value [3] was “sensitive”. For the same compound, the “demethylation activity of immunoaffinity-purified LSD1 (LSD1-protein A)” value (LSD1-protein A complex) was “sensitive”.
